Assay results reported in ChEMBL document CHEMBL5321210, “N-adamantyl-anthranil amide derivatives: New selective ligands for the cannabinoid receptor subtype 2 (CB2R)” (Eur J Med Chem, 2023).
Active and inactive are the calls of the source. The calls are words filed in the database; no cut-off is given here.

Experiments:
[1] = test system: THP-1; assay: Antiinflammatory activity in human THP-1 monocytes assessed as decrease in IL-6 production incubated for 24 hrs by ELISA coupled qRT-PCR analysis; assay type: functional, cell-based; conditions: dose 1-10 µM
[2] = test system: THP-1; assay: Antiinflammatory activity in human THP-1 monocytes assessed as increase in IL-4 production incubated for 24 hrs by ELISA coupled qRT-PCR analysis; assay type: functional, cell-based; conditions: dose 1-10 µM
[3] = test system: THP-1; assay: Antiinflammatory activity in PMA-differentiated human THP-1 macrophages assessed as decrease in IFN-gamma production at 1 to 10 uM incubated for 24 hrs in the presence of JTE907 by ELISA coupled qRT-PCR analysis; assay type: functional, cell-based; conditions: dose 1-10 µM
[4] = test system: THP-1; assay: Antiinflammatory against LPS-activated human THP-1 monocytes assessed as increase in IL-10 production at 1 to 10 uM incubated for 24 hrs in the presence of JTE907 by ELISA coupled qRT-PCR analysis; assay type: functional, cell-based; conditions: dose 1-10 µM
[5] = test system: THP-1; assay: Antiinflammatory activity in PMA-differentiated human THP-1 macrophages assessed as increase in IL-4 production at 1 to 10 uM incubated for 24 hrs by ELISA coupled qRT-PCR analysis; assay type: functional, cell-based; conditions: dose 1-10 µM
[6] = test system: THP-1; assay: Antiinflammatory activity in human THP-1 monocytes assessed as increase in IL-4 production at 1 to 10 uM incubated for 24 hrs in the presence of JTE907 by ELISA coupled qRT-PCR analysis; assay type: functional, cell-based; conditions: dose 1-10 µM
[7] = test system: THP-1; assay: Antiinflammatory activity in PMA-differentiated human THP-1 macrophages assessed as reduction in IL-1beta production at 1 to 10 uM incubated for 24 hrs by ELISA coupled qRT-PCR analysis relative to control; assay type: functional; design: scale not given: the % may be the effect or the level left; conditions: dose 1-10 µM
[8] = test system: THP-1; assay: Antiinflammatory activity in human THP-1 monocytes assessed as increase in IL-10 production at 1 to 10 uM incubated for 24 hrs in the presence of JTE907 by ELISA coupled qRT-PCR analysis; assay type: functional, cell-based; conditions: dose 1-10 µM
[9] = test system: THP-1; assay: Antiinflammatory activity in human THP-1 monocytes assessed as increase in IL-10 production incubated for 24 hrs by ELISA coupled qRT-PCR analysis; assay type: functional, cell-based; conditions: dose 1-10 µM
[10] = test system: THP-1; assay: Antiinflammatory activity in PMA-differentiated human THP-1 macrophages assessed as increase in IL-4 production at 1 to 10 uM incubated for 24 hrs in the presence of JTE907 by ELISA coupled qRT-PCR analysis; assay type: functional, cell-based; conditions: dose 1-10 µM
[11] = test system: THP-1; assay: Antiinflammatory activity against LPS-activated PMA-differentiated human THP-1 macrophages assessed as increase in IL-10 production at 1 to 10 uM incubated for 24 hrs by ELISA coupled qRT-PCR analysis; assay type: functional, cell-based; conditions: dose 1-10 µM
[12] = test system: THP-1; assay: Antiinflammatory activity in PMA-differentiated human THP-1 macrophages assessed as decrease in IL-6 production at 10 uM incubated for 24 hrs in the presence of JTE907 by ELISA coupled qRT-PCR analysis; assay type: functional, cell-based
[13] = test system: THP-1; assay: Antiinflammatory activity in human THP-1 monocytes assessed as decrease in IL-1beta production at 10 uM incubated for 24 hrs in the presence of JTE907 by ELISA coupled qRT-PCR analysis; assay type: functional, cell-based
[14] = test system: THP-1; assay: Antiinflammatory activity against LPS-activated human THP-1 monocytes assessed as decrease in TNF-alpha production at 10 uM incubated for 24 hrs in the presence of N-(adamantan-1-yl)-4-(pentylamino)-[1,1'-biphenyl]-3-carboxamide by ELISA coupled qRT-PCR analysis; assay type: functional, cell-based
[15] = test system: THP-1; assay: Antiinflammatory activity in human THP-1 monocytes assessed as decrease in IL-1beta production at 10 uM incubated for 24 hrs in the presence of N-(adamantan-1-yl)-4-(pentylamino)-[1,1'-biphenyl]-3-carboxamide by ELISA coupled qRT-PCR analysis; assay type: functional, cell-based
[16] = test system: THP-1; assay: Antiinflammatory activity against LPS-activated PMA-differentiated human THP-1 monocytes assessed as decrease in TNF-alpha production at 10 uM incubated for 24 hrs in the presence of N-(adamantan-1-yl)-4-(pentylamino)-[1,1'-biphenyl]-3-carboxamide by ELISA coupled qRT-PCR analysis; assay type: functional, cell-based
[17] = test system: THP-1; assay: Antiinflammatory activity in PMA-differentiated human THP-1 monocytes assessed as decrease in IL-1beta production at 10 uM incubated for 24 hrs in the presence of N-(adamantan-1-yl)-4-(pentylamino)-[1,1'-biphenyl]-3-carboxamide by ELISA coupled qRT-PCR analysis; assay type: functional, cell-based
[18] = test system: THP-1; assay: Antiinflammatory activity in human THP-1 monocytes assessed as decrease in IL-6 production at 10 uM incubated for 24 hrs in the presence of N-(adamantan-1-yl)-4-(pentylamino)-[1,1'-biphenyl]-3-carboxamide by ELISA coupled qRT-PCR analysis; assay type: functional, cell-based
[19] = test system: THP-1; assay: Antiinflammatory activity in PMA-differentiated human THP-1 macrophages assessed as decrease in IFN-gamma production at 10 uM incubated for 24 hrs in the presence of JTE907 by ELISA coupled qRT-PCR analysis; assay type: functional, cell-based
[20] = test system: THP-1; assay: Antiinflammatory activity against LPS-activated human THP-1 monocytes assessed as decrease in IL-1beta production at 10 uM incubated for 24 hrs in the presence of N-(adamantan-1-yl)-4-(pentylamino)-[1,1'-biphenyl]-3-carboxamide by ELISA coupled qRT-PCR analysis; assay type: functional, cell-based
[21] = test system: THP-1; assay: Antiinflammatory against LPS-activated human THP-1 monocytes assessed as decrease in IL-1beta production at 10 uM incubated for 24 hrs in the presence of JTE907 by ELISA coupled qRT-PCR analysis; assay type: functional, cell-based
[22] = test system: THP-1; assay: Antiinflammatory activity in human THP-1 monocytes assessed as increase in IL-4 production at 10 uM incubated for 24 hrs in the presence of JTE907 by ELISA coupled qRT-PCR analysis; assay type: functional, cell-based
[23] = test system: THP-1; assay: Antiinflammatory against LPS-activated human THP-1 monocytes assessed as decrease in IFN-gamma production at 10 uM incubated for 24 hrs in the presence of JTE907 by ELISA coupled qRT-PCR analysis; assay type: functional, cell-based
[24] = test system: THP-1; assay: Antiinflammatory activity in LPS-activated PMA-differentiated human THP-1 macrophages assessed as decrease in IL-1beta production at 10 uM incubated for 24 hrs in the presence of JTE907 by ELISA coupled qRT-PCR analysis; assay type: functional, cell-based
[25] = test system: THP-1; assay: Antiinflammatory activity against LPS-activated PMA-differentiated human THP-1 macrophages assessed as increase in IL-10 production at 10 uM incubated for 24 hrs by ELISA coupled qRT-PCR analysis; assay type: functional, cell-based
[26] = test system: THP-1; assay: Antiinflammatory activity in PMA-differentiated human THP-1 macrophages assessed as decrease in TNF-alpha production at 10 uM incubated for 24 hrs in the presence of JTE907 by ELISA coupled qRT-PCR analysis; assay type: functional, cell-based
[27] = test system: THP-1; assay: Antiinflammatory against LPS-activated human THP-1 monocytes assessed as decrease in TNF-alpha production at 10 uM incubated for 24 hrs in the presence of JTE907 by ELISA coupled qRT-PCR analysis; assay type: functional, cell-based
[28] = test system: THP-1; assay: Antiinflammatory activity against LPS-activated PMA-differentiated human THP-1 monocytes assessed as decrease in IFN-gamma production at 10 uM incubated for 24 hrs in the presence of N-(adamantan-1-yl)-4-(pentylamino)-[1,1'-biphenyl]-3-carboxamide by ELISA coupled qRT-PCR analysis; assay type: functional, cell-based

CCCCCNc1ccccc1C(=O)NC12CC3CC(CC(C3)C1)C2
Activity [1]: Dose-Dependent Effect
Activity [2]: Dose-Dependent Effect
Activity [3]: inactive
Activity [4]: inactive
Activity [5]: Active
Activity [6]: inactive
Activity [7]: 50%
Activity [8]: inactive
Activity [9]: Dose-Dependent Effect
Activity [10]: inactive
Activity [11]: Active

O=C(NC1CCCCC1)c1cn(CCN2CCOCC2)c2cc(Cl)ccc2c1=O
Activity [12]: inactive
Activity [13]: inactive
Activity [14]: inactive
Activity [15]: inactive
Activity [16]: inactive
Activity [17]: inactive
Activity [18]: inactive
Activity [19]: inactive
Activity [20]: inactive
Activity [21]: inactive
Activity [22]: inactive
Activity [23]: inactive
Activity [24]: inactive
Activity [25]: Active
Activity [26]: inactive
Activity [27]: inactive
Activity [28]: inactive
